Data: patent US20080153896A1, “Polymorphic Forms of an HMG-CoA Reductase Inhibitor and Uses Thereof” (priority 2006, published 2008)

Assay: Stability (integrity) testing of amorphous and polymorphic form under storage conditions, RP-HPLC
Assay type: physicochemical
Set-up: key to Impurity RRT 0.738 / Impurity RRT 0.949 / Impurity RRT 1.050 / Impurity RRT 1.550 / Impurity RRT 0.136 / Impurity RRT 0.720 / Impurity RRT 0.706 / Impurity RRT 1.18 / Impurity RRT 1.826: % of total UV absorption (HPLC peak area); Impurity RRT 1.104 / Impurity RRT 1.698: unit not given beside the values
Conditions: Batch 3 PP00205
Procedure: The integrity of the different forms of the (3R, 5R)-7-[2-(4-fluorophenyl)-5-isopropyl-3-phenyl-4-[(4-hydroxymethylphenylamino)carbonyl]-pyrrol-1-yl]-3,5-dihydroxy-heptanoic acid, hemi calcium salt, was tested under different atmospheric conditions to determine the stability of the amorphous and polymorphic form of the drug in various storage environments. Reversed Phase-HPLC (RP-HPLC) was used to separate (3R, 5R)-7-[2-(4-fluorophenyl)-5-isopropyl-3-phenyl-4-[(4-hydroxymethylphenylamino)carbonyl]-pyrrol-1-yl]-3,5-dihydroxy-heptanoic acid, hemi calcium salt, from smaller molecules representing breakdown products as well as oxidized drug. The relative amount of the drug was reported as a percent of total absorption by UV. The total peak area of all UV absorption impurities was used to define total impurity of the drug. Impurities are defined by their relative retention time (RRT) compared to native drug. Samples were injected onto a C18 column using standard temperature, gradient and run-time conditions.
The results of this integrity testing for the amorphous form of (3R, 5R)-7-[2-(4-fluorophenyl)-5-isopropyl-3-phenyl-4-[(4-hydroxymethylphenylamino)carbonyl]-pyrrol-1-yl]-3,5-dihydroxy-heptanoic acid, hemi calcium salt, is shown in Table 5.
Three separate batches of polymorphic Form I of (3R, 5R)-7-[2-(4-fluorophenyl)-5-isopropyl-3-phenyl-4-[(4-hydroxymethylphenylamino)carbonyl]-pyrrol-1-yl]-3,5-dihydroxy-heptanoic acid, hemi calcium salt, were prepared and tested under the same atmospheric conditions described for the amorphous form.

CC(C)c1c(C(=O)Nc2ccc(CO)cc2)c(-c2ccccc2)c(-c2ccc(F)cc2)n1CC[C@@H](O)C[C@@H](O)CC(=O)[O-].CC(C)c1c(C(=O)Nc2ccc(CO)cc2)c(-c2ccccc2)c(-c2ccc(F)cc2)n1CC[C@@H](O)C[C@@H](O)CC(=O)[O-].[Ca+2] [Form I, (3R,5)-7-[2-(4-fluorophenyl)-5-isopropyl-3-phenyl-4-[(4-hydroxymethylphenylamino)carbonyl]-pyrrol-1-yl]-3,5-dihydroxy-heptanoic acid, hemi calcium salt]
Impurity RRT 0.935 (30° C./65% RH 12M): 0.424 | Impurity RRT 1.045 (30° C./65% RH 12M): 0.363 | Impurity RRT 1.095 (30° C./65% RH 12M): 0.172 | Impurity RRT 1.449 (30° C./65% RH 12M): 0.197 | Impurity RRT 1.596 (30° C./65% RH 12M): 0.089 | Impurity RRT 1.640 (30° C./65% RH 12M): 0.064 | Impurity RRT 1.698 (30° C./65% RH 12M): 0.058 | Total Impurity (30° C./65% RH 12M): 1.367 | Water (30° C./65% RH 12M): 5.33 % W/W | Assay (40° C./75% RH 1M): 98.23 % W/W | Description (40° C./75% RH 1M): White | Highest Impurity (40° C./75% RH 1M): 0.452 | Impurity RRT 0.935 (40° C./75% RH 1M): 0.452 | Impurity RRT 1.045 (40° C./75% RH 1M): 0.372 | Impurity RRT 1.095 (40° C./75% RH 1M): 0.162 | Impurity RRT 1.44 (40° C./75% RH 1M): 0.215 | Impurity RRT 1.590 (40° C./75% RH 1M): 0.100 | Impurity RRT 1.640 (40° C./75% RH 1M): 0.071 | Impurity RRT 1.698 (40° C./75% RH 1M): 0.066 | Total Impurity (40° C./75% RH 1M): 1.46 | Water (40° C./75% RH 1M): 4.33 % W/W | Assay (40° C./75% RH 2M): 98.23 % W/W | Description (40° C./75% RH 2M): White | Highest Impurity (40° C./75% RH 2M): 0.422 | Impurity RRT 0.935 (40° C./75% RH 2M): 0.422 | Impurity RRT 1.045 (40° C./75% RH 2M): 0.351 | Impurity RRT 1.095 (40° C./75% RH 2M): 0.169 | Impurity RRT 1.18 (40° C./75% RH 2M): 0.052 | Impurity RRT 1.44 (40° C./75% RH 2M): 0.219 | Impurity RRT 1.590 (40° C./75% RH 2M): 0.090 | Impurity RRT 1.640 (40° C./75% RH 2M): 0.066 | Impurity RRT 1.698 (40° C./75% RH 2M): 0.065 | Total Impurity (40° C./75% RH 2M): 1.44 | Water (40° C./75% RH 2M): 4.40 % W/W | Assay (40° C./75% RH 3M): 98.2 % W/W | Description (40° C./75% RH 3M): White | Highest Impurity (40° C./75% RH 3M): 0.423 | Impurity RRT 0.935 (40° C./75% RH 3M): 0.423 | Impurity RRT 1.045 (40° C./75% RH 3M): 0.360 | Impurity RRT 1.095 (40° C./75% RH 3M): 0.174 | Impurity RRT 1.44 (40° C./75% RH 3M): 0.218 | Impurity RRT 1.590 (40° C./75% RH 3M): 0.102 | Impurity RRT 1.640 (40° C./75% RH 3M): 0.065 | Impurity RRT 1.698 (40° C./75% RH 3M): 0.064 | Total Impurity (40° C./75% RH 3M): 1.41 | Water (40° C./75% RH 3M): 4.75 % W/W | Assay (40° C./75% RH 6M): 98.16 % W/W | Description (40° C./75% RH 6M): White | Highest Impurity (40° C./75% RH 6M): 0.418 | Impurity RRT 0.138 (40° C./75% RH 6M): 0.107 | Impurity RRT 0.935 (40° C./75% RH 6M): 0.418 | Impurity RRT 1.045 (40° C./75% RH 6M): 0.347 | Impurity RRT 1.095 (40° C./75% RH 6M): 0.161 | Impurity RRT 1.449 (40° C./75% RH 6M): 0.187 | Impurity RRT 1.596 (40° C./75% RH 6M): 0.087 | Impurity RRT 1.640 (40° C./75% RH 6M): 0.050 | Impurity RRT 1.698 (40° C./75% RH 6M): 0.052 | Total Impurity (40° C./75% RH 6M): 1.409 | Water (40° C./75% RH 6M): 5.44 % W/W | Assay (Initial): 98.43 % W/W | Description (Initial): White | Highest Impurity (Initial): 0.428 | Impurity RRT 0.706 (Initial): 0.045 | Impurity RRT 0.935 (Initial): 0.428 | Impurity RRT 1.045 (Initial): 0.349 | Impurity RRT 1.095 (Initial): 0.159 | Impurity RRT 1.44 (Initial): 0.235 | Impurity RRT 1.590 (Initial): 0.093 | Impurity RRT 1.640 (Initial): 0.054 | Impurity RRT 1.698 (Initial): 0.084 | Total Impurity (Initial): 1.438 | Water (Initial): 4.76 % W/W
